Reference: ChEMBL document CHEMBL4002626, “Identification of a selective inhibitor of transforming growth factor β-activated kinase 1 by biosensor-based screening of focused libraries” (Bioorg Med Chem Lett, 2017)
The source made the active and inactive calls.

What was measured:
[1] = molecular target: T1, Mitogen-activated protein kinase kinase kinase 7 (Homo sapiens, UniProt O43318); assay: Binding affinity to recombinant human biotinylated N-terminal GST-tagged autophosphorylated TAK1 (1 to 303 residues) fused with TAB1 (437 to 504 residues) expressed in baculovirus infected sf9 cells by SPR assay
T1 sequence (O43318 whole entry): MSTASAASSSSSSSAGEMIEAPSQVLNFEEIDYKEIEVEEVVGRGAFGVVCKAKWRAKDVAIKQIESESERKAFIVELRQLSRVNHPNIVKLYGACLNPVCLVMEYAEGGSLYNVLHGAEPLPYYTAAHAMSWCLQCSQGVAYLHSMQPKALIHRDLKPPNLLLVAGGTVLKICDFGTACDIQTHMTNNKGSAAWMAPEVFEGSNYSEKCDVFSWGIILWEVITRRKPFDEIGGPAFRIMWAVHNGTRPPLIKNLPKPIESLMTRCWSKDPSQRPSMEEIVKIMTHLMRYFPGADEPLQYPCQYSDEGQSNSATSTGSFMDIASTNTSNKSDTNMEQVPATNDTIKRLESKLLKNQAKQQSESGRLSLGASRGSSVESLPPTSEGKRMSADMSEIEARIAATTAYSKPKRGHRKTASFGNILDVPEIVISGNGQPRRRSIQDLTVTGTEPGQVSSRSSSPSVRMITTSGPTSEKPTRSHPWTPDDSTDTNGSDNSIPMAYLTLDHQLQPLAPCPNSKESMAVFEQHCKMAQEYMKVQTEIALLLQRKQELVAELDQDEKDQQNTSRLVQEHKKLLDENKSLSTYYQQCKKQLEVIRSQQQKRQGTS

[2] = molecular target: T1, Mitogen-activated protein kinase kinase kinase 7; assay: Binding affinity to recombinant human biotinylated N-terminal GST-tagged non-autophosphorylated TAK1 (1 to 303 residues) fused with TAB1 (437 to 504 residues) expressed in baculovirus infected sf9 cells by SPR assay
[3] = molecular target: T2, Mitogen-activated protein kinase kinase kinase 7 (Homo sapiens) (UniProt O43318); assay: Binding affinity to TAK1 (unknown origin) at 5 uM using spin-labeled probe by 1H NMR method
T2 sequence (whole entry): T1 sequence (O43318 whole entry)

[4] = molecular target: T2, Mitogen-activated protein kinase kinase kinase 7 (Homo sapiens); assay: Binding affinity to recombinant human biotinylated N-terminal GST-tagged TAK1 (1 to 303 residues) fused with TAB1 (437 to 504 residues) expressed in baculovirus infected sf9 cells at 250 uM in presence of adenosine by SPR assay
[5] = molecular target: Protein-tyrosine kinase 6 (Homo sapiens, UniProt Q13882); assay: Inhibition of recombinant full length human N-terminal GST-tagged BRK (2 to 451 residues) expressed in baculovirus expression system
Chain of Protein-tyrosine kinase 6 (Q13882 whole entry, the tested form may be a part): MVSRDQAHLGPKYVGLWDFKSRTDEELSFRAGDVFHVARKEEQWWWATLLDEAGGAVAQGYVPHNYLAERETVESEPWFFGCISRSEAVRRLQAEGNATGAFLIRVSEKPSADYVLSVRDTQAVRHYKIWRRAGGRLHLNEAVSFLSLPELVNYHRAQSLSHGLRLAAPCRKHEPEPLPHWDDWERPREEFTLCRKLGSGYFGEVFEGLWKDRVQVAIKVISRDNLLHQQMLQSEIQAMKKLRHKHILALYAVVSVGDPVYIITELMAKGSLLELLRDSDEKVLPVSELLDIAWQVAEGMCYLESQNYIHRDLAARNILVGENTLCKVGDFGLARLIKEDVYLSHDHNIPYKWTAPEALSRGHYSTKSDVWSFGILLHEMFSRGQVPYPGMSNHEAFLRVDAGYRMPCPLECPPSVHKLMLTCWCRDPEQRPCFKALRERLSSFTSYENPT

[6] = molecular target: BMP-2-inducible protein kinase (Homo sapiens) (UniProt Q9NSY1); assay: Inhibition of human BIKE (S34 to N329 residues) expressed in bacterial expression system at 1 uM by KINOMEscan assay
[7] = molecular target: Fibroblast growth factor receptor 2 (Homo sapiens, UniProt P21802); assay: Inhibition of recombinant human N-terminal GST-tagged FGFR2 cytoplasmic domain (399 to 821 residues) expressed in baculovirus expression system
[8] = molecular target: Mitogen-activated protein kinase 14 (Homo sapiens, UniProt Q16539); assay: Inhibition of recombinant human N-terminal GST-tagged p38-alpha (9 to 352 residues) expressed in Escherichia coli expression system
[9] = molecular target: RAC-alpha serine/threonine-protein kinase (Homo sapiens, UniProt P31749); assay: Inhibition of recombinant human N-terminal GST-tagged AKT1 catalytic domain (104 to 480 residues) expressed in baculovirus expression system
[10] = molecular target: T3, Protein kinase C beta type (Homo sapiens, UniProt P05771); assay: Inhibition of recombinant full length human N-terminal GST-tagged PKCbeta1 (1 to 671 residues) expressed in baculovirus expression system
T3 sequence (P05771 whole entry, the tested form may be a part): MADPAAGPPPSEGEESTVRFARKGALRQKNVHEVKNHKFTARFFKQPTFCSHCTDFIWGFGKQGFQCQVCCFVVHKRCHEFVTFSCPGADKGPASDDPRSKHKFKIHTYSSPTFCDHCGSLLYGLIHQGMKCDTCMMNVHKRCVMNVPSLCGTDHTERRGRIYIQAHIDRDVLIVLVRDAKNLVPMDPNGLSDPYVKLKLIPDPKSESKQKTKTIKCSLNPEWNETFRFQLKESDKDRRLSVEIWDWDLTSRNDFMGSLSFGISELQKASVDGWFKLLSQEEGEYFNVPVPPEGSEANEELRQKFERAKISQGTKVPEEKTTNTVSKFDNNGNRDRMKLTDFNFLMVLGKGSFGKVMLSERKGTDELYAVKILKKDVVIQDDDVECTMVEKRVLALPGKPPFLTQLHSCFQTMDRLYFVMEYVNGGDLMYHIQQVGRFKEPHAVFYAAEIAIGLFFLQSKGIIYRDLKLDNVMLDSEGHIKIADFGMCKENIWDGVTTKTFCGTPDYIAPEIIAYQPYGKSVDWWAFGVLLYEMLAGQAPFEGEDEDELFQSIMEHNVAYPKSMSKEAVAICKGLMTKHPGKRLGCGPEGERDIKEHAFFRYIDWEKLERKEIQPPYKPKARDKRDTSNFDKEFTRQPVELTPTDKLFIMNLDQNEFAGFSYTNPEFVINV

[11] = molecular target: Dual specificity mitogen-activated protein kinase kinase 1 (Homo sapiens, UniProt Q02750); assay: Inhibition of MEK1 (unknown origin)
Chain of Dual specificity mitogen-activated protein kinase kinase 1 (Q02750 whole entry, the tested form may be a part): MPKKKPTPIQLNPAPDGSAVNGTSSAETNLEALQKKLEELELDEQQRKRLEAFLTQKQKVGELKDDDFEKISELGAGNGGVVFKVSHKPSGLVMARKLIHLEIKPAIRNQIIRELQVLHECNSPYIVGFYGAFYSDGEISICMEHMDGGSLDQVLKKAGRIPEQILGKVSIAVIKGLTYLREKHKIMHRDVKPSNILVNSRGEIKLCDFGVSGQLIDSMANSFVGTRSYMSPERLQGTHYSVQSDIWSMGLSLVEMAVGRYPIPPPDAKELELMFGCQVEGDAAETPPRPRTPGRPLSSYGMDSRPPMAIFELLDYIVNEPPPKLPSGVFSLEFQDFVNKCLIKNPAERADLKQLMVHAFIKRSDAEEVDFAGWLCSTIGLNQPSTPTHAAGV

[12] = molecular target: Leukocyte tyrosine kinase receptor (Homo sapiens, UniProt P29376); assay: Inhibition of recombinant human N-terminal GST-tagged LTK cytoplasmic domain (498 to 796 residues) expressed in baculovirus expression system
[13] = molecular target: Protein kinase C zeta type (Homo sapiens, UniProt Q05513); assay: Inhibition of recombinant full length human N-terminal GST-tagged PKCzeta (1 to 592 residues) expressed in baculovirus expression system
[14] = molecular target: Tyrosine-protein kinase receptor UFO (Homo sapiens, UniProt P30530); assay: Inhibition of recombinant human N-terminal GST-tagged AXL cytoplasmic domain (464 to 885 residues) expressed in baculovirus expression system
Aurora kinase A = Aurora kinase A (Homo sapiens, UniProt O14965); assay: Inhibition of recombinant full length human N-terminal GST-tagged Aurora kinase-A (1 to 403 residues) expressed in baculovirus expression system
[15] = molecular target: Epithelial discoidin domain-containing receptor 1 (Homo sapiens, UniProt Q08345); assay: Inhibition of recombinant human N-terminal GST-tagged DDR1 cytoplasmic domain (444 to 876 residues) expressed in baculovirus expression system
[16] = molecular target: Macrophage-stimulating protein receptor (Homo sapiens, UniProt Q04912); assay: Inhibition of recombinant human N-terminal GST-tagged RON cytoplasmic domain (979 to 1400 residues) expressed in baculovirus expression system
Chain of Macrophage-stimulating protein receptor (Q04912 25-304 limits assumed): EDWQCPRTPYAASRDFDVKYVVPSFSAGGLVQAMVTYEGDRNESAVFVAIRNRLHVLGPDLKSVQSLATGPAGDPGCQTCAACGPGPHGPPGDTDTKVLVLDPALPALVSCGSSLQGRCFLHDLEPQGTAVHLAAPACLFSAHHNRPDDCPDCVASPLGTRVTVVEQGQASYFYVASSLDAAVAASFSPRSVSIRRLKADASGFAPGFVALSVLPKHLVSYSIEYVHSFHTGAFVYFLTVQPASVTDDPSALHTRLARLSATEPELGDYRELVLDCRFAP
Chain of Macrophage-stimulating protein receptor (Q04912 310-1400 limits assumed): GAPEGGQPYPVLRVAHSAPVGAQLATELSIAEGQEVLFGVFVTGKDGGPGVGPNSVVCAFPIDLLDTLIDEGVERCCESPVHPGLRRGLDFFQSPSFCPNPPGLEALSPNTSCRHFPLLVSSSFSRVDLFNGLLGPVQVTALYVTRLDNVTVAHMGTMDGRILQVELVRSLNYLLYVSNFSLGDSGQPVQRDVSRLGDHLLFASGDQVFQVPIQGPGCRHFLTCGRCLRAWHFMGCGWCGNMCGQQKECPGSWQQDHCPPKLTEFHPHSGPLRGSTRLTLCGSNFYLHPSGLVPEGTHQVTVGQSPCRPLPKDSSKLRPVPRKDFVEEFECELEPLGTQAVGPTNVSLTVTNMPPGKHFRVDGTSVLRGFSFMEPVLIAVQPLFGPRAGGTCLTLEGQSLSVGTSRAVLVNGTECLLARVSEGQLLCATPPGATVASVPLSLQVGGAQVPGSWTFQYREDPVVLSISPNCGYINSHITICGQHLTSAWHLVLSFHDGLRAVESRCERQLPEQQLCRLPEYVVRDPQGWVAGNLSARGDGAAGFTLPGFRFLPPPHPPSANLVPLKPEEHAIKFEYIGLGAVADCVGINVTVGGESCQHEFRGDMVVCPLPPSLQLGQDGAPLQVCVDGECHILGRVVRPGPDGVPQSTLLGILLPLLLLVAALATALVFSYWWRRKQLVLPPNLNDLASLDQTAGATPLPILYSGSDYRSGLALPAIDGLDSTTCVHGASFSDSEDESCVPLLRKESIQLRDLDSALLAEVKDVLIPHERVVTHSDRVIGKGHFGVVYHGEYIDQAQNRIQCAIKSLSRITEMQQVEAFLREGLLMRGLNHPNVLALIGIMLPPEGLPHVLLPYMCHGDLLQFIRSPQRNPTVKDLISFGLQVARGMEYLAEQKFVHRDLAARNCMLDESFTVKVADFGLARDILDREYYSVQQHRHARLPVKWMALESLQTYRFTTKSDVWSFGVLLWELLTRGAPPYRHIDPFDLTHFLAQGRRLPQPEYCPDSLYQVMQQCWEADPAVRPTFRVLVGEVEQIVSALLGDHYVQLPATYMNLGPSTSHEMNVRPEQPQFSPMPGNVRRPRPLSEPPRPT

[17] = molecular target: Mast/stem cell growth factor receptor Kit (Homo sapiens, UniProt P10721); assay: Inhibition of recombinant human N-terminal GST-tagged KIT cytoplasmic domain (544 to 976 residues) expressed in baculovirus expression system
[18] = molecular target: Proto-oncogene tyrosine-protein kinase Src (Homo sapiens, UniProt P12931); assay: Inhibition of recombinant full length human N-terminal GST-tagged SRC (1 to 536 residues) expressed in baculovirus expression system
[19] = molecular target: Tyrosine-protein kinase Lck (Homo sapiens, UniProt P06239); assay: Inhibition of recombinant full length human N-terminal GST-tagged LCK (1 to 509 residues) expressed in baculovirus expression system
[20] = molecular target: Vascular endothelial growth factor receptor 2 (Homo sapiens, UniProt P35968); assay: Inhibition of recombinant human N-terminal GST-tagged KDR cytoplasmic domain (790 to 1356 residues) expressed in baculovirus expression system
[21] = Solubility of the compound in 50 mM phosphate buffer at pH 6.5 after 24 hrs by HPLC-UV spectrophotometric assay; assay type: physicochemical
[22] = molecular target: Protein kinase C alpha type (Homo sapiens, UniProt P17252); assay: Inhibition of recombinant full length human N-terminal GST-tagged PKCalpha (1 to 351 residues) expressed in baculovirus expression system
[23] = molecular target: Tyrosine-protein kinase Yes (Homo sapiens, UniProt P07947); assay: Inhibition of recombinant full length human N-terminal GST-tagged YES (1 to 543 residues) expressed in baculovirus expression system
[24] = molecular target: Cyclin-dependent kinase 2 (Homo sapiens, UniProt P24941); assay: Inhibition of CDK2 (unknown origin)
[25] = molecular target: T2, Mitogen-activated protein kinase kinase kinase 7 (Homo sapiens); assay: Binding affinity to recombinant human biotinylated N-terminal GST-tagged TAK1 (1 to 303 residues) fused with TAB1 (437 to 504 residues) expressed in baculovirus infected sf9 cells at 1 uM in presence of ATP by SPR assay
[26] = molecular target: Hepatocyte growth factor receptor (Homo sapiens, UniProt P08581); assay: Inhibition of recombinant human N-terminal GST-tagged MET cytoplasmic domain (956 to 1390 residues) expressed in baculovirus expression system
[27] = Solubility of the compound in fasted state simulated intestinal fluid at pH 6.5 after 24 hrs by HPLC-UV spectrophotometric assay; assay type: physicochemical
[28] = molecular target: T3, Protein kinase C beta type; assay: Inhibition of recombinant full length human N-terminal GST-tagged PKCbeta2 (1 to 673 residues) expressed in baculovirus expression system
[29] = Inhibition of PKA (unknown origin); parameters: species or system Homo sapiens
[30] = molecular target: Epidermal growth factor receptor (Homo sapiens, UniProt P00533); assay: Inhibition of recombinant human N-terminal GST-tagged EGFR cytoplasmic domain (669 to 1210 residues) expressed in baculovirus expression system
Chain of Epidermal growth factor receptor (P00533 whole entry, the tested form may be a part): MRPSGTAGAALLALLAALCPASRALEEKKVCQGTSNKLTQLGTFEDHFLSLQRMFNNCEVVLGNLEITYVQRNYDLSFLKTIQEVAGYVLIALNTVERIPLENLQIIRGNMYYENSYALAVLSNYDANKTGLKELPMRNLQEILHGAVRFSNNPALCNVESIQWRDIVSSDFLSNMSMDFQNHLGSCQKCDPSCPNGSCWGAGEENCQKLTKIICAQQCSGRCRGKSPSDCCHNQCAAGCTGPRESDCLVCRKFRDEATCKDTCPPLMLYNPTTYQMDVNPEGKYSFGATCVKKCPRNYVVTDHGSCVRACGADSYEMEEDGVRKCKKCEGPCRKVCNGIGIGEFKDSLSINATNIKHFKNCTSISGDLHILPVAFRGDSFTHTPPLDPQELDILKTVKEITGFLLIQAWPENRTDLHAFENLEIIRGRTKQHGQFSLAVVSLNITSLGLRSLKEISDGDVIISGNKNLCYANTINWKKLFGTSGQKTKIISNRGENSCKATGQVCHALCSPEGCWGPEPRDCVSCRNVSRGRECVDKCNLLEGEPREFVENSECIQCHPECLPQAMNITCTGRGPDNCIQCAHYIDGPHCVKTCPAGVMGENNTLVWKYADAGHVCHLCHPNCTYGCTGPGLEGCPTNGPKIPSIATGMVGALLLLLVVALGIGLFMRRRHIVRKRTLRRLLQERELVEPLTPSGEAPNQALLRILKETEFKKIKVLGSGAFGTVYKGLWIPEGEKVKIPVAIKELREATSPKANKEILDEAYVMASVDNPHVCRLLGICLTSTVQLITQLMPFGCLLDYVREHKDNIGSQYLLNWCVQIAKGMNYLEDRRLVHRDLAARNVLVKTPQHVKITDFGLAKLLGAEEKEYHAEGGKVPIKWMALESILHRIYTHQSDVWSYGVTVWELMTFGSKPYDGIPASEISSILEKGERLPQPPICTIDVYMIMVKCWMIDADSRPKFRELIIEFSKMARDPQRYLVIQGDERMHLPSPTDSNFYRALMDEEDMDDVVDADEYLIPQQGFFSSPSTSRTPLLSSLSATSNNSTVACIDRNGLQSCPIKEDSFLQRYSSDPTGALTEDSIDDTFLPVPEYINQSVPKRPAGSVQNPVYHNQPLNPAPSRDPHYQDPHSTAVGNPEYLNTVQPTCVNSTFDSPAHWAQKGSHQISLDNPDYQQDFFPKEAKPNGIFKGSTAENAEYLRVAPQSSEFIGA

[31] = molecular target: Tyrosine-protein kinase Lyn (Homo sapiens, UniProt P07948); assay: Inhibition of LYN (unknown origin)
[32] = molecular target: Tyrosine-protein kinase Fyn (Homo sapiens, UniProt P06241); assay: Inhibition of FYN (unknown origin)
[33] = molecular target: Receptor-type tyrosine-protein kinase FLT3 (Homo sapiens, UniProt P36888); assay: Inhibition of recombinant human N-terminal GST-tagged FLT3 cytoplasmic domain (564 to 993 residues) expressed in baculovirus expression system
Ephrin type-A receptor 2 = Ephrin type-A receptor 2 (Homo sapiens, UniProt P29317); assay: Inhibition of recombinant human N-terminal GST-tagged EPHA2 cytoplasmic domain (572 to 976 residues) expressed in baculovirus expression system
[34] = molecular target: Cyclin-dependent kinase 1 (Homo sapiens, UniProt P06493); assay: Inhibition of CDK1 (unknown origin)
Insulin receptor = Insulin receptor (Homo sapiens, UniProt P06213); assay: Inhibition of recombinant human N-terminal GST-tagged INSR cytoplasmic domain (1005 to 1310 residues) expressed in baculovirus expression system
Focal adhesion kinase 1 = Focal adhesion kinase 1 (Homo sapiens, UniProt Q05397); assay: Inhibition of recombinant human N-terminal GST-tagged FAK cytoplasmic domain (376 to 1052 residues) expressed in baculovirus expression system
[35] = molecular target: Tyrosine-protein kinase ABL1 (Homo sapiens, UniProt P00519); assay: Inhibition of recombinant full length human N-terminal GST-tagged ABL (2 to 1130 residues) expressed in baculovirus expression system
[36] = Inhibition of PDGFR (unknown origin); parameters: species or system Homo sapiens
[37] = molecular target: Insulin-like growth factor 1 receptor (Homo sapiens, UniProt P08069); assay: Inhibition of recombinant human N-terminal GST-tagged IGF1R cytoplasmic domain (959 to 1367 residues) expressed in baculovirus expression system
[38] = molecular target: RAF proto-oncogene serine/threonine-protein kinase (Homo sapiens, UniProt P04049); assay: Inhibition of recombinant human N-terminal GST-tagged RAF1 catalytic domain (306 to 648 residues) expressed in baculovirus expression system

Nc1ncnc2c1ncn2[C@@H]1O[C@H](CO)[C@@H](O)[C@H]1O [ADENOSINE]
4.4 µM: Kd [1]
34 µM: Kd [2]

Nc1ncnc2c1ncn2[C@@H]1O[C@H](COP(=O)(O)O)[C@@H](O)[C@H]1O [ADENOSINE PHOSPHATE]
120 µM: Kd [1]
370 µM: Kd [2]

Oc1cnnc(SCc2ccc(Br)cc2)n1
active: Activity [3] | Activity [4]

Nc1ncnc2c1ncn2[C@@H]1O[C@H](COP(=O)(O)OP(=O)(O)O)[C@@H](O)[C@H]1O [ADENOSINE DIPHOSPHATE]
4.1 µM: Kd [1]
63 µM: Kd [2]

COc1cc2ncccc2cc1NC(=O)c1csc2cncnc12
42 µM: IC50 (Aurora kinase A)
active: inhibition [6] | Activity [25]
0.056 µM: IC50 [33]
< 3 µg/mL: solubility at 24 h [21] | solubility at 24 h [27]
> 50 µM: IC50 [5] | IC50 [7] | IC50 [8] | IC50 [9] | IC50 [10] | IC50 [11] | IC50 [12] | IC50 [13] | IC50 [14] | IC50 [15] | IC50 [16] | IC50 [17] | IC50 [18] | IC50 [19] | IC50 [20] | IC50 [22] | IC50 [23] | IC50 [24] | IC50 [26] | IC50 [28] | IC50 [29] | IC50 [30] | IC50 [31] | IC50 [32] | IC50 (Ephrin type-A receptor 2) | IC50 [34] | IC50 (Insulin receptor) | IC50 (Focal adhesion kinase 1) | IC50 [35] | IC50 [36] | IC50 [37] | IC50 [38]
0.059 µM: Kd [1]
0.15 µM: Kd [2]

CN1CCN(c2cccc3cc(NC(=O)Nc4ccc(Oc5ccnc6[nH]ccc56)cc4)ccc23)CC1
0.012 µM: Kd [1]

Nc1ncnc2c1ncn2[C@@H]1O[C@H](COP(=O)(O)OP(=O)(O)OP(=O)(O)O)[C@@H](O)[C@H]1O [ADENOSINE TRIPHOSPHATE]
2.8 µM: Kd [1]
